The source of these data is ChEMBL document CHEMBL1138121 (Bioorg Med Chem Lett, 2006).

As a reminder, the IC50 is the point on the concentration scale where inhibition reaches its midpoint. Read a low IC50 as greater potency in that assay.

For the assay, the target named is T1, Glycogen phosphorylase, muscle form (Oryctolagus cuniculus, UniProt P00489).
T1 sequence (P00489 whole entry): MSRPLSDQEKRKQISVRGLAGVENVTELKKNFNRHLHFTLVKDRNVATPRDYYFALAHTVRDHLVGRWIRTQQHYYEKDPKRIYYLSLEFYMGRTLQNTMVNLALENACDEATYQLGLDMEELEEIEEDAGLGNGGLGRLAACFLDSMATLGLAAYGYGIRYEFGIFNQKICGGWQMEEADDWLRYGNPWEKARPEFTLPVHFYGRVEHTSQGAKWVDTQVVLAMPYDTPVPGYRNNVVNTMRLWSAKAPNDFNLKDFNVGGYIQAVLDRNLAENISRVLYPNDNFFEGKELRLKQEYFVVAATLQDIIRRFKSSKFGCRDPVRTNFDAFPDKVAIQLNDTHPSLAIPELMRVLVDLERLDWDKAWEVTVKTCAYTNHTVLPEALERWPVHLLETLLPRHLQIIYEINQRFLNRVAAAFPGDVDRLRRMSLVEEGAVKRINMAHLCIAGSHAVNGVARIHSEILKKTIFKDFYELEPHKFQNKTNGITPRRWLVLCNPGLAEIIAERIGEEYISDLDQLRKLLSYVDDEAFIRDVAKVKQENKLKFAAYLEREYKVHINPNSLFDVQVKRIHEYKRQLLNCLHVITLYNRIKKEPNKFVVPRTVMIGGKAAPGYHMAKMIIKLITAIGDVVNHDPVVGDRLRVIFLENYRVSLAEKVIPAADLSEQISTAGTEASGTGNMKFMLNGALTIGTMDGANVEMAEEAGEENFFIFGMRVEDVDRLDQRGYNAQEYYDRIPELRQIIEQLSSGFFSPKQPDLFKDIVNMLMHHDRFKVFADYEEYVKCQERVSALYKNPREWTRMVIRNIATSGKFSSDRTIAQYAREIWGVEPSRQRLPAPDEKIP
Briefly: Inhibitory activity against rabbit muscle GPa. Type of assay: tissue-based, Muscle tissue.
In turn, `CC(=O)O[C@@H]1C[C@]2(C)[C@H]3CC=C4[C@@H]5CC(C)(C)CC[C@]5(C(=O)OCc5ccccc5)CC[C@@]4(C)[C@]3(C)CC[C@H]2C(C)(C)C1=O` came in with an IC50 of 29 µM.

As to `CCN(CC)CCCCOC(=O)[C@]12CCC(C)(C)C[C@H]1C1=CC[C@@H]3[C@@]4(C)C[C@@H](O)[C@H](O)C(C)(C)[C@@H]4CC[C@@]3(C)[C@]1(C)CC2`, half-maximal inhibition (IC50) required 62 µM. For `CC1(C)CC[C@]2(C(=O)OCn3cccn3)CC[C@]3(C)C(=CC[C@@H]4[C@@]5(C)C[C@@H](O)[C@H](O)C(C)(C)[C@@H]5CC[C@]43C)[C@@H]2C1`, the IC50 stood at 66 µM. `CC1(C)CC[C@]2(C(=O)OCCBr)CC[C@]3(C)C(=CC[C@@H]4[C@@]5(C)C[C@@H](O)[C@H](O)C(C)(C)[C@@H]5CC[C@]43C)[C@@H]2C1` returned an IC50 of 50 µM. Compound `CC1(C)CC[C@]2(C(=O)OCc3ccccc3)CC[C@]3(C)C(=CC[C@@H]4[C@@]5(C)C[C@@H](O[Si](C)(C)C(C)(C)C)[C@H](O)C(C)(C)[C@@H]5CC[C@]43C)[C@@H]2C1` yielded an IC50 of 1710 µM.

`CC(=O)O[C@@H]1C[C@]2(C)[C@H]3CC=C4[C@@H]5CC(C)(C)CC[C@]5(C(=O)OCc5ccccc5)CC[C@@]4(C)[C@]3(C)CC[C@H]2C(C)(C)[C@@H]1O` showed a 50% inhibitory concentration (IC50) of 63 µM. In turn, `CC1(C)CC[C@]2(C(=O)OCC(=O)O)CC[C@]3(C)C(=CC[C@@H]4[C@@]5(C)C[C@@H](O)[C@H](O)C(C)(C)[C@@H]5CC[C@]43C)[C@@H]2C1` showed an IC50 of 1650 µM.

For the compound `CC1(C)CC[C@]2(C(=O)OCCN3CCOCC3)CC[C@]3(C)C(=CC[C@@H]4[C@@]5(C)C[C@@H](O)[C@H](O)C(C)(C)[C@@H]5CC[C@]43C)[C@@H]2C1`, inhibition was half-maximal at 43 µM (IC50). In the case of `CC1(C)CC[C@]2(C(=O)OCCO)CC[C@]3(C)C(=CC[C@@H]4[C@@]5(C)C[C@@H](O)[C@H](O)C(C)(C)[C@@H]5CC[C@]43C)[C@@H]2C1`, the IC50 amounted to 153 µM. Turning to `CCOC(=O)COC(=O)[C@]12CCC(C)(C)C[C@H]1C1=CC[C@@H]3[C@@]4(C)C[C@@H](O)[C@H](O)C(C)(C)[C@@H]4CC[C@@]3(C)[C@]1(C)CC2`, the IC50 turned out to be 19 µM.

The compound `CC1(C)CC[C@]2(C(=O)OCCCCBr)CC[C@]3(C)C(=CC[C@@H]4[C@@]5(C)C[C@@H](O)[C@H](O)C(C)(C)[C@@H]5CC[C@]43C)[C@@H]2C1` gave an IC50 of 7 µM.

Turning to `CC1(C)CC[C@]2(C(=O)OCc3ccccc3)CC[C@]3(C)C(=CC[C@@H]4[C@@]5(C)C[C@@H](O)[C@@H](O)C(C)(C)[C@@H]5CC[C@]43C)[C@@H]2C1`, the IC50 was 66 µM. Turning to `CC1(C)CC[C@]2(C(=O)OCCCCN3CCCCC3)CC[C@]3(C)C(=CC[C@@H]4[C@@]5(C)C[C@@H](O)[C@H](O)C(C)(C)[C@@H]5CC[C@]43C)[C@@H]2C1`, the IC50 is 580 µM. In the case of `CC(=O)O[C@@H]1C[C@]2(C)[C@H]3CC=C4[C@@H]5CC(C)(C)CC[C@]5(C(=O)OCc5ccccc5)CC[C@@]4(C)[C@]3(C)CC[C@H]2C(C)(C)[C@H]1O`, the IC50 was 80 µM. To `CC1(C)CC[C@]2(C(=O)OCc3ccccc3)CC[C@]3(C)C(=CC[C@@H]4[C@@]5(C)C[C@@H](O[Si](C)(C)C(C)(C)C)[C@@H](O)C(C)(C)[C@@H]5CC[C@]43C)[C@@H]2C1` belongs 580 µM; to `CC1(C)CC[C@]2(C(=O)OCc3ccccc3)CC[C@]3(C)C(=CC[C@@H]4[C@@]5(C)C[C@@H](O)C(=O)C(C)(C)[C@@H]5CC[C@]43C)[C@@H]2C1`, 29 µM; to `CC1(C)CC[C@]2(C(=O)OCc3ccccc3)CC[C@]3(C)C(=CC[C@@H]4[C@@]5(C)C=C(O)C(=O)C(C)(C)[C@@H]5CC[C@]43C)[C@@H]2C1`, 30 µM. Turning to `CC1(C)CC[C@]2(C(=O)OCCN3CCCCC3)CC[C@]3(C)C(=CC[C@@H]4[C@@]5(C)C[C@@H](O)[C@H](O)C(C)(C)[C@@H]5CC[C@]43C)[C@@H]2C1`, the IC50 turned out to be 31 µM. As to `CCN(CC)CCOC(=O)[C@]12CCC(C)(C)C[C@H]1C1=CC[C@@H]3[C@@]4(C)C[C@@H](O)[C@H](O)C(C)(C)[C@@H]4CC[C@@]3(C)[C@]1(C)CC2`, the IC50 is 51 µM.

For `CC1(C)CC[C@]2(C(=O)OCCCCN3CCOCC3)CC[C@]3(C)C(=CC[C@@H]4[C@@]5(C)C[C@@H](O)[C@H](O)C(C)(C)[C@@H]5CC[C@]43C)[C@@H]2C1`, the IC50 is 121 µM. Take `COC(=O)[C@]12CCC(C)(C)C[C@H]1C1=CC[C@@H]3[C@@]4(C)C[C@@H](O)[C@H](O)C(C)(C)[C@@H]4CC[C@@]3(C)[C@]1(C)CC2` [MASLINIC ACID METHYL ESTER]: the IC50 is 393 µM.
